# Laboratory results: paper PMC10709440, “High-throughput ligand profile characterization in novel cell lines expressing seven heterologous insect olfactory receptors for the detection of volatile plant biomarkers” (Scientific Reports, 2023)
# Read-outs that look alike come from different tables or passages of the source.
# How the values were obtained:
# OR10a = test system: OR10a; design: method as in earlier work; settings: DoOR database value, ref DoOR, cited from earlier work
# OR13a = test system: OR13a; design: method as in earlier work; settings: DoOR database value, ref DoOR, cited from earlier work
# OR49b = test system: OR49b; design: method as in earlier work; settings: DoOR database value, ref DoOR, cited from earlier work
# OR47a = test system: OR47a; design: method as in earlier work; settings: DoOR database value, ref DoOR, cited from earlier work
# OR98a = test system: OR98a; design: method as in earlier work; settings: DoOR database value, ref DoOR, cited from earlier work
# OR85b = test system: OR85b; design: method as in earlier work; settings: DoOR database value, ref DoOR, cited from earlier work
# Drosophila OR13a = molecular target: T1, Drosophila OR13a (Drosophila melanogaster, UniProt Q9VXL0); experiment: Calcium ion fluorescence (GCaMP6) assay, OR13a stable HEK293 cell line; type: cell-based; settings: for OR13a response (VUAA1-normalized) at 1 μM / OR13a response (VUAA1-normalized) at 10 μM / OR13a response (VUAA1-normalized) at 100 μM: OR13a cell line; for OR13a response (VUAA1-normalized) at 1 μM: VOC concentration 1 μM; for OR13a response (VUAA1-normalized) at 10 μM: VOC concentration 10 μM; for OR13a response (VUAA1-normalized) at 100 μM: VOC concentration 100 μM
# T1 construct: expressed in transfected cells
# T1 sequence (Q9VXL0 1-418): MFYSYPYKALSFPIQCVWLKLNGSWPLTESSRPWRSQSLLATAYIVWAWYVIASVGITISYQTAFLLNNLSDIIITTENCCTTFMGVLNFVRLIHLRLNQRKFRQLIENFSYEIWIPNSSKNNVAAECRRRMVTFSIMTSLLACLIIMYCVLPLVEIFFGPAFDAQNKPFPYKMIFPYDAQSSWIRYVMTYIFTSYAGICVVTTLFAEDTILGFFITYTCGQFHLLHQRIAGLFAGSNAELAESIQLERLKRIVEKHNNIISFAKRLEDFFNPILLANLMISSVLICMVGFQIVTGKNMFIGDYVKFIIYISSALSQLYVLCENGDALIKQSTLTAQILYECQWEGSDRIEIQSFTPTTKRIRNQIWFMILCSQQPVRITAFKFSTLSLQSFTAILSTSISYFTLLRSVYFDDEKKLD
# T1 sequence (Q9VNB5 1-486 partner): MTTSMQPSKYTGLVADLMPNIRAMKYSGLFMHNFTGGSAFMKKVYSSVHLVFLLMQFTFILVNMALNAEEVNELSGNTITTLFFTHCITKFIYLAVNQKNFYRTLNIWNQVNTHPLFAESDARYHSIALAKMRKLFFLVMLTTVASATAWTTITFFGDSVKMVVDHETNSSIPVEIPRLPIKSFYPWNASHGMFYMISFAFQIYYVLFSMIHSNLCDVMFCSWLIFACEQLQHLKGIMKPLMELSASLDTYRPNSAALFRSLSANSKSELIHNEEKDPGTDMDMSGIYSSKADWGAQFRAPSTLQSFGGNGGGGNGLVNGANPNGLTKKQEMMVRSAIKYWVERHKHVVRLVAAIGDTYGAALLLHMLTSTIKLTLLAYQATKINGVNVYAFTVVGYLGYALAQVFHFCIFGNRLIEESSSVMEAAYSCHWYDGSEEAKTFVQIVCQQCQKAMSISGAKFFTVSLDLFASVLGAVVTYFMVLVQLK
# Method in brief: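 HEK293 lines stably expressing each Drosophila OR with GCaMP6, doxycycline-induced (1 μg/mL) 48 or 72 h. Fluorescence recorded 5 s baseline then 30 s after VOC injection at pH 7.3; ΔF=(FMAX−F0)/F0, normalized to 50 µM VUAA1 response per line, triplicate wells averaged; concentration series 0.01–100 μM.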
# [1] = HEK293, read-out: OR13a Average response (VUAA1-normalized), 1 μM VOC, 50 μM VUAA1 = 1, responses not exceeding 0.05 considered 0
# [2] = HEK293, read-out: OR13a Average response (VUAA1-normalized), 10 μM VOC, 50 μM VUAA1 = 1, responses not exceeding 0.05 considered 0
# [3] = HEK293, read-out: OR13a Average response (VUAA1-normalized), 100 μM VOC, 50 μM VUAA1 = 1, responses not exceeding 0.05 considered 0
# [4] = ligand concentration 1 (unit not given), threshold 0.05, below shown as 0
# [5] = ligand concentration 10 (unit not given), threshold 0.05, below shown as 0
# [6] = ligand concentration 100 (unit not given), threshold 0.05, below shown as 0
SMILES,activation at 1 µM (Drosophila OR13a; [1]) [%],activation at 10 µM (Drosophila OR13a; [2]) [%],activation at 100 µM (Drosophila OR13a; [3]) [%],OR10a DoOR response (OR10a; OR10a),OR13a DoOR response (OR13a; OR13a),OR49b DoOR response (OR49b; OR49b),OR47a DoOR response (OR47a; OR47a),OR98a DoOR response (OR98a; OR98a),OR85b DoOR response (OR85b; OR85b),OR13a response (VUAA1-normalized) at 1 μM (Drosophila OR13a),OR13a response (VUAA1-normalized) at 10 μM (Drosophila OR13a),OR13a response (VUAA1-normalized) at 100 μM (Drosophila OR13a),DF norm AVERAGE OR13a (Drosophila OR13a; [4]),DF norm AVERAGE OR13a (Drosophila OR13a; [5]),DF norm AVERAGE OR13a (Drosophila OR13a; [6]),further results
C=C1CC/C=C(\C)CC[C@@H]2[C@@H]1CC2(C)C [(-)-trans-caryophyllene],0,11,10,–,–,–,–,–,–,–,–,–,–,–,–,"OR10a DoOR response (OR10a): -0.002; OR13a DoOR response (OR13a): 0.0851; OR49b DoOR response (OR49b): 0.001; OR47a DoOR response (OR47a): -0.002; OR98a DoOR response (OR98a): -0.004; OR85b DoOR response (OR85b): 0.053; activation at 1 µM (Drosophila OR13a; HEK293, read-out: OR13a response (VUAA1-normalized response), VOC concentration 1 μM): 0%; activation at 10 µM (Drosophila OR13a; HEK293, read-out: OR13a response (VUAA1-normalized response), VOC concentration 10 μM): 11%; activation at 100 µM (Drosophila OR13a; HEK293, read-out: OR13a response (VUAA1-normalized response), VOC concentration 100 μM): 10%; DF norm AVERAGE OR13a (Drosophila OR13a; concentration 1, normalized fluorescence change, values below 0.05 threshold given as 0): 0; DF norm AVERAGE OR13a (Drosophila OR13a; concentration 10, normalized fluorescence change, values below 0.05 threshold given as 0): 0.1145; DF norm AVERAGE OR13a (Drosophila OR13a; concentration 100, normalized fluorescence change, values below 0.05 threshold given as 0): 0.105"
CCCCCOC(C)=O [pentyl acetate],4,0.671,4.32,0.03,0.39,0.022,0.82,0.64,0.56,0.00,0.00,0.00,0,0,0,–
COC(=O)c1ccccc1O [methyl salicylate],0,1,21,0.75,0.07,0.05,-0.032,0.034,0.009,0.00,0.00,0.21,0,0,0.213,–
